Results taken from US20250382298A1, “NITROGEN-CONTAINING COMPOUND AND USE THEREOF” (SUZHOU GENHOUSE BIO CO., LTD., priority 2022, published 2025).
pEC50, pIC50: −log10 of the molar value.

What was measured:
OVCAR3 cells = experiment: Detection of cell proliferation activity by CCK8 method (OVCAR3); format: cell-based; details: Homo sapiens, OVCAR-3, CCK8, 96 h
Excerpt: (§1) This assay can be used to examine the potency of compounds in inhibiting the proliferation of tumor cells (OVCAR3, HT-29, BT-549, HCT-116). A lower IC50 value indicates high potency of the compound as a KIF18A inhibitor in the following assay setup,
(§2) McCoy's 5A medium purchased from Sangon Biotech; CCK8 kit purchased from Beyotime; OVCAR3, HT-29, HCT-116, and BT-549 cells purchased from Shanghai Fuheng Biotechnology Co., Ltd.; multimode microplate reader (Thermo).
(§3) Cells at the logarithmic growth phase were taken, digested with a cell lysis buffer (trypsin), centrifuged, counted, and seeded into a 96-well plate at an appropriate cell density (BT549: 1500 cells/well in 1640 medium. HT-29 and HCT-116: 2000 cells/well in McCoy's 5A medium), with 180 μL per well, for a total of 60 wells. The surrounding wells were filled with an equal amount of PBS to prevent water evaporation from the edge wells. The next day after cell plating, the test compounds at different concentration gradients (with an initial final concentration of 10 μM, diluted in a 1:5 gradient to obtain 9 concentration gradients) were added to the wells. Three replicate wells were set up for each concentration point, and a corresponding DMSO negative control group was also set up. Detection: After 96 h of drug treatment, the test cell culture plate was removed from the incubator. All the liquid in the 96-well plate was aspirated, and 100 μL of medium containing 10% CCK8 solution was added to each well. The plate was then incubated at 37° C. for 2 h (the OD450 of the DMSO group reached 1.5 or more), and the absorbance at 450 nm was measured using a microplate reader
(§4) After the background value was subtracted from the measurement for each well, the inhibition rate was calculated. Inhibition Rate (%)=(1−Sample/Vehicle)×100. Sample is the luminescence value of the drug treatment group, and Vehicle is the luminescence value of the DMSO control group. A sigmoidal dose-survival rate curve was plotted using a non-linear regression model in the GraphPad Prism 7.0 software, and the IC50 values were calculated.

HT-29 cells [1] = experiment: Detection of cell proliferation activity by CCK8 method (HT-29); format: cell-based, human; details: Homo sapiens, CCK8, 96 h
Excerpt: as §1, §2, §3, §4

BT-549 cells = experiment: Detection of cell proliferation activity by CCK8 method (BT-549); format: cell-based; details: Homo sapiens, CCK8, 96 h
Excerpt: as §1, §2, §3, §4

HCT-116 cells [2] = experiment: Detection of cell proliferation activity by CCK8 method (HCT-116); format: cell-based; details: Homo sapiens, CCK8, 96 h
Excerpt: as §1, §2, §3, §4

HT-29 cells [3] = experiment: Mitotic index analysis, pH3 expression in HT-29 cells; format: cell-based, human; details: Homo sapiens, 24 h treatment
Method: (§5) HCT-116 and HT-29 cells at the logarithmic growth phase were taken, digested with a cell lysis buffer (trypsin), centrifuged, counted, and seeded into a 96-well plate at an appropriate cell density (20000 cells/well), with 100 μL per well. The surrounding wells were filled with an appropriate amount of PBS to prevent water evaporation. The next day, the cells were treated with the compounds at different concentrations (with a starting concentration of 10 μM, 3-fold diluted to obtain 9 concentration gradients). After 24 h, the medium was aspirated, and the cells were washed twice with 100 μL of PBS. The cells were then fixed with 4% paraformaldehyde and incubated at room temperature for 15 min. The fixative solution was discarded, and the cells were washed with PBS. Then, 150 μL of specialized blocking solution (containing 1% Triton-100) was added to each well for blocking at room temperature for 2 h, and the plate was washed with PBS to remove excess blocking solution. Anti-phistone H3 (pH3) was diluted at a ratio of 1:1000 with a blocking solution containing 0.033% Triton-100, and a blank control group was set up. Then, incubation was performed at 4° C. overnight. The next day, the plate was washed twice with 1×PBST. Anti-rabbit-IgG (H+L) (CST) and DRAQ5 (Thermofisher) were each diluted at an appropriate ratio with a blocking solution containing 0.033% Triton-100 (secondary antibody: 1:2000; DRAQ5: 1:10000). Then, incubation was performed at room temperature for 2 h. The plate was washed twice with 1×PBST and once with PBS. Fluorescence signals at 700 nm and 800 nm were detected using a Li—COR Odyssey two-color near-infrared laser imager. Calculation was performed as follows: pH3 expression (%)=(Cmpd dose/DMSO control)×100. Cmpd dose is the value of the drug treatment group, and DMSO control is the value of the DMSO control group. The EC50 values were determined by fitting using the GraphPad Prism 7.0 software.

HCT-116 cells [4] = experiment: Mitotic index analysis, pH3 expression in HCT-116 cells; format: cell-based; details: Homo sapiens, 24 h treatment
Method: as §5

Structure (SMILES)	pIC50 (OVCAR3 cells)	pIC50 (HT-29 cells [1])	pIC50 (BT-549 cells)	pIC50 (HCT-116 cells [2])	pEC50 (HT-29 cells [3])	pEC50 (HCT-116 cells [4])
CC1(C)C2CN(c3cc(NS(=O)(=O)CCO)ccc3C(=O)Nc3cn4ccnc4c(N4CCC(F)(F)CC4)n3)CC21 (stereo not drawn) [Compound 20]	6.93	6.29	6.13	< 5.00	6.36	< 5.00
O=C(Nc1cn2c(C(F)(F)F)cnc2c(N2CCC(F)(F)CC2)n1)c1ccc(NS(=O)(=O)CCO)cc1N1CCC2(CC1)CC2 [Compound 35]	5.73	–	–	< 5.00	–	< 5.00
O=C(Nc1cn2cc(C(F)(F)F)nc2c(N2CCC(F)(F)CC2)n1)c1ccc(NS(=O)(=O)CCO)cc1N1CCC2(CC1)CC2 [Compound 36]	6.55	6.28	5.79	< 5.00	–	< 5.00
O=C(Nc1cc2nccnc2c(N2CCC(F)(F)CC2)n1)c1ccc(NS(=O)(=O)CCO)cc1N1CCC2(CC1)CC2 [Compound 39]	8.00	7.55	7.58	< 5.00	–	< 5.00
Cc1cnc2c(N3CCC(F)(F)CC3)nc(NC(=O)c3ccc(NS(=O)(=O)CCO)cc3N3CCC4(CC3)CC4)cn12 [Compound 42]	7.08	6.64	6.52	< 5.00	6.59	< 5.00
O=S(=O)(CCO)Nc1cc(N2CCC3(CC2)CC3)c2c(Nc3cn4ccnc4c(N4CCC(F)(F)CC4)n3)ncnc2c1 [Compound 43]	7.63	7.02	7.19	< 5.00	7.52	< 5.00
Cc1cc(NC(=O)c2ccc(NS(=O)(=O)CCO)cc2N2Cc3ccccc3C2)nc(N2CCC(F)(F)CC2)n1 [Compound 44]	6.13	5.78	5.72	< 5.00	–	< 5.00
CS(=O)(=O)Nc1ccc(C(=O)Nc2cc3ccsc3c(N3CCC(F)(F)CC3)n2)c(N2CCC3(CC2)CC3)c1 [Compound 45]	7.27	7.03	6.77	< 5.00	7.09	< 5.00
CS(=O)(=O)Nc1ccc(C(=O)Nc2cn3c(F)cnc3c(N3CCC(F)(F)CC3)n2)c(N2CCC3(CC2)CC3)c1 [Compound 46]	7.46	7.25	7.12	< 5.00	7.28	< 5.00
Cn1ncc2cc(NC(=O)c3ccc(NS(C)(=O)=O)cc3N3CCC4(CC3)CC4)nc(N3CCC(F)(F)CC3)c21 [Compound 48]	7.91	7.77	7.58	< 5.00	7.91	< 5.00
O=C(Nc1cc2ccsc2c(N2CCC(F)(F)CC2)n1)c1ccc(NS(=O)(=O)CCO)cc1N1CC2CCC(C2)C1 [Compound 50]	7.28	7.26	6.76	< 5.00	7.50	< 5.00
O=C(Nc1cn2ncnc2c(N2CCC(F)(F)CC2)n1)c1ccc(NS(=O)(=O)CCO)cc1N1CC2CCC(C2)C1 [Compound 54]	7.93	7.57	7.26	< 5.00	7.97	< 5.00
CS(=O)(=O)Nc1ccc(C(=O)Nc2cn3cncc3c(N3CCC(F)(F)CC3)n2)c(N2CCC3(CC2)CC3)c1 [Compound 58]	7.42	7.01	7.04	< 5.00	6.92	< 5.00
O=C(Nc1cn2cncc2c(N2CCC(F)(F)CC2)n1)c1ccc(NS(=O)(=O)CCO)cc1N1CC2CCC(C2)C1 [Compound 59]	7.56	7.09	7.08	< 5.00	7.31	< 5.00
CS(=O)(=O)Nc1ccc(C(=O)Nc2cn3cncc3c(N3CCC(F)(F)CC3)n2)c(N2CC3CCC(C3)C2)c1 [Compound 60]	7.20	6.84	6.62	< 5.00	6.91	< 5.00
CS(=O)(=O)Nc1ccc(C(=O)Nc2cn3cnnc3c(N3CCC(F)(F)CC3)n2)c(N2CCC3(CC2)CC3)c1 [Compound 61]	7.63	7.22	7.51	< 5.00	7.28	< 5.00
O=C(Nc1cc2cc[nH]c2c(N2CCC(F)(F)CC2)n1)c1ccc(NS(=O)(=O)CCO)cc1N1CC2CCC(C2)C1 [Compound 62]	8.22	7.82	7.64	< 5.00	8.11	< 5.00
CS(=O)(=O)Nc1ccc(C(=O)Nc2cc3cc[nH]c3c(N3CCC(F)(F)CC3)n2)c(N2CC3CCC(C3)C2)c1 [Compound 63]	8.00	7.81	7.47	< 5.00	7.99	< 5.00
O=C(Nc1cn2cnnc2c(N2CCC(F)(F)CC2)n1)c1ccc(NS(=O)(=O)CCO)cc1N1CC2CCC(C2)C1 [Compound 64]	7.99	7.26	7.37	< 5.00	7.57	< 5.00
CS(=O)(=O)Nc1ccc(C(=O)Nc2cc3nn[nH]c3c(N3CCC(F)(F)CC3)n2)c(N2CC3CCC(C3)C2)c1 [Compound 66]	7.73	7.15	7.05	< 5.00	7.46	< 5.00
O=C(Nc1cc2nn[nH]c2c(N2CCC(F)(F)CC2)n1)c1ccc(NS(=O)(=O)CCO)cc1N1CC2CCC(C2)C1 [Compound 67]	7.86	7.06	7.21	< 5.00	7.44	< 5.00
CS(=O)(=O)Nc1ccc(C(=O)Nc2cc3nn[nH]c3c(N3CCC(F)(F)CC3)n2)c(N2CCC3(CC2)CC3)c1 [Compound 68]	7.36	6.80	7.04	< 5.00	7.05	< 5.00
O=C(Nc1cc2cn[nH]c2c(N2CCC(F)(F)CC2)n1)c1ccc(NS(=O)(=O)CCO)cc1N1CC2CCC(C2)C1 [Compound 71]	8.30	7.76	7.40	< 5.00	8.11	< 5.00
CS(=O)(=O)c1ccc(C(=O)Nc2cn3ccnc3c(N3CCC(F)(F)CC3)n2)c(N2CCC3(CC2)CC3)c1 [Compound 74]	7.32	7.08	6.81	–	–	–
